# Article PMC10780633, “Novel Multi-Target Agents Based on the Privileged Structure of 4-Hydroxy-2-quinolinone” (Molecules, 2023)
# Key:
# soybean lipoxygenase = target: T1, soybean lipoxygenase (Glycine max, UniProt P08170); assay: Soybean LOX inhibition in vitro (UV absorbance-based assay); assay type: biochemical; details: for Inhibition of Soybean Lipoxygenase % at 0.1 mM / inhibition at 100 µM: 0.1 mM
# T1 construct: purchased Sigma Chemical, Co. (St. Louis, MO, USA)
# T1 sequence (P08170 1-839): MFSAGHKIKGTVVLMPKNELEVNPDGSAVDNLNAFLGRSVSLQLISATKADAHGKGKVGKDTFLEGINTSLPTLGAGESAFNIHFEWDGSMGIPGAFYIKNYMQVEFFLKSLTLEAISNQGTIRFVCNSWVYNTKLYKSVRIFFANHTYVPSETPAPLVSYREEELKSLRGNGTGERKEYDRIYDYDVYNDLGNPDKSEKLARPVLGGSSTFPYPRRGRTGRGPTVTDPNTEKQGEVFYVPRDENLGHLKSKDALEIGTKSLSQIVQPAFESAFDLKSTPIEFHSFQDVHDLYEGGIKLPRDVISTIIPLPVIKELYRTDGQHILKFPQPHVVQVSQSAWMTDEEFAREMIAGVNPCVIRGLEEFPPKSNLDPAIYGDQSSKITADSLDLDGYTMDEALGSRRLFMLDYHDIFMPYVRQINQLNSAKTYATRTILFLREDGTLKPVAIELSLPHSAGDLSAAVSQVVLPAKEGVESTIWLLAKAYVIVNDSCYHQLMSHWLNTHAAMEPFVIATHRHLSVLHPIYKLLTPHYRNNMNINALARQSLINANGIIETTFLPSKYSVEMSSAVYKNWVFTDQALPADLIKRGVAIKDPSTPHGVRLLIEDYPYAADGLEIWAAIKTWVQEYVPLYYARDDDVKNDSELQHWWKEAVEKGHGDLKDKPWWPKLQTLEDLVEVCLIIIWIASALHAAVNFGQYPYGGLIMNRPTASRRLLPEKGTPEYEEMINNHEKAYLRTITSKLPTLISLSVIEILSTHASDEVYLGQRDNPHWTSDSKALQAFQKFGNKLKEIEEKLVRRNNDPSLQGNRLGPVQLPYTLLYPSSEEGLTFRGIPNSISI
# Procedure: For this study, the UV absorbance-based soybean LOX assay was used.
# The assay for the determination of the inhibition of soybean LOX was performed according to the methods of Hadjipavlou-Litina et al., which we have also used in our previous works.
# [1] = Inhibition of lipid peroxidation of linoleic acid induced by AAPH radical; details: 100 μM
# Procedure: (§1) In this work, the carboxamides 3a–3u, the quinolinone–cinnamic or benzoic acid hybrids 11a–11g and the reverse amides 16a–16c were tested for their antioxidant activity via five in vitro techniques; (i) the interaction with the stable free radical 2,2-diphenyl-1-picrylhydrazyl (DPPH); (ii) the inhibition of lipid peroxidation; (iii) the hydroxyl radical scavenging ability; (iv) the 2,2-azino-bis(3-ethylbenzothiazoline-6-sulfonic acid (ABTS) radical cation (ABTS·^+) reduction; and (v) the superoxide anion radical scavenging ability.
# The assay for the determination of the inhibition of linoleic acid peroxidation induced by the free radical initiator […](2-amidinopropane) dihydrochloride (AAPH) was performed according to the methods of Hadjipavlou-Litina et al., which we have also used in our previous works.
# [2] = Non-enzymatic superoxide anion radical scavenging assay (PMS); details: 0.1 mM
# Procedure: as §1
# The experimental technique used for this assay was performed according to our previous works. Caffeic acid was used as an appropriate standard.
# [3] = ABTS radical cation decolorization assay; details: 0.1 mM
# Procedure: as §1
# The experimental technique used in this section was performed according to the methods of Pontiki et al.. The results were compared to the appropriate standard inhibitor Trolox.
# [4] = Interaction with the stable free radical DPPH (reducing activity); details: for Interaction with the Free Radical DPPH (%): 100 μM; for DPPH radical scavenging activity, time not specified: reaction time not given
# Procedure: as §1
# [5] = Competition with DMSO for hydroxyl radicals; details: 0.1 mM
# Procedure: as §1
# The assay was performed according to the methods of Pontiki et al. Trolox was used as a reference compound [78].
Structure (SMILES),Inhibition of Soybean Lipoxygenase % at 0.1 mM (soybean lipoxygenase),Inhibition of Lipid Peroxidation of Linoleic Acid Induced by AAPH Radical (%) [1],PMS% (superoxide anion radical scavenging) [2],ABTS% (ABTS radical cation decolorization) [3],Interaction with the Free Radical DPPH (%) ([4]; 20 min),Interaction with the Free Radical DPPH (%) ([4]; 60 min),OH% (hydroxyl radical scavenging) [5],IC50 (soybean lipoxygenase) [µM],"DPPH radical scavenging activity, time not specified [4]",inhibition at 100 µM (soybean lipoxygenase) [%],melting point [°C]
"O=C(NCCO)c1c(O)c2ccccc2n(-c2ccccc2)c1=O [Compound 3d, 4-hydroxy-N-(2-hydroxyethyl)-2-oxo-1-phenyl-1,2-dihydroquinoline-3-carboxamide]",inactive and no,32.8%,66.6%,no activity and no,15.9,20.8,no,–,–,–,–
"CCCCCCCNC(=O)c1c(O)c2ccccc2n(C)c1=O [Compound 3e, N-heptyl-4-hydroxy-1-methyl-2-oxo-1,2-dihydroquinoline-3-carboxamide]",no activity and no,inactive and no,66.6%,2.6%,6.6,12.2,86.1%,–,–,–,–
"O=C(Nc1ccc(O)cc1)c1c(O)c2ccccc2n(-c2ccccc2)c1=O [Compound 3g, 4-hydroxy-N-(4-hydroxyphenyl)-2-oxo-1-phenyl-1,2-dihydroquinoline-3-carboxamide]",–,100%,no,72.4%,40.7,51.7,67.7%,27.5,–,–,–
"CC1CCCCC1NC(=O)c1c(O)c2ccccc2n(C)c1=O (stereo not drawn) [Compound 3h, 4-hydroxy-1-methyl-N-(2-methylcyclohexyl)-2-oxo-1,2-dihydroquinoline-3-carboxamide]",–,31%,no,no,6.0,8.1,78.6%,10,–,–,–
"CC1CCCCC1NC(=O)c1c(O)c2ccccc2n(-c2ccccc2)c1=O (stereo not drawn) [Compound 3i, 4-hydroxy-N-(2-methylcyclohexyl)-2-oxo-1-phenyl-1,2-dihydroquinoline-3-carboxamide]",inactive and no,36%,no,no,5.2,3.7,78.1%,–,–,–,–
"Cn1c(=O)c(C(=O)Nc2ccccc2O)c(O)c2ccccc21 [Compound 3j, 4-hydroxy-N-(2-hydroxyphenyl)-1-methyl-2-oxo-1,2-dihydroquinoline-3-carboxamide]",–,32.8%,no,49.7%,32.5,46.5,100%,100,–,–,–
"Cc1ccccc1NC(=O)c1c(O)c2ccccc2n(C)c1=O [Compound 3k, 4-hydroxy-1-methyl-2-oxo-N-(o-tolyl)-1,2,dihydroquinoline-3carboxamide]",–,41.4%,61.5%,54.5%,1.4,11.8,totally inactive and no,315,inactive,–,–
"Cc1ccc(NC(=O)c2c(O)c3ccccc3n(C)c2=O)cc1 [Compound 3l, 4-hydroxy-1-methyl-2-oxo-N-(p-tolyl)-1,2-dihydroquinoline-3-carboxamide]",–,no,no,no,2.6,2.6,53.7%,45,inactive,–,–
"Cn1c(=O)c(C(=O)Nc2ccc(F)cc2)c(O)c2ccccc21 [Compound 3m, N-(4-fluorophenyl)-4-hydroxy-1-methyl-2-oxo-1,2-dihydroquinoline-3-carboxamide]",–,11.3%,no,12.4%,3.1,1.2,94.0%,–,inactive,15,–
"O=C(NCCc1ccc(O)cc1)c1c(O)c2ccccc2n(-c2ccccc2)c1=O [Compound 3n, 4-hydroxy-N-(4-hydroxyphenethyl)-2-oxo-1-phenyl-1,2-dihydroquinoline-3-carboxamide]",–,100%,no,no,13.9,19.2,14.9%,85,–,–,–
"Cn1c(=O)c(C(=O)NCCc2ccc(O)cc2)c(O)c2ccccc21 [Compound 3o, 4-hydroxy-N-(4-hydroxyphenethyl)-1-methyl-2-oxo-1,2-dihydroquinoline-3-carboxamide]",no,100%,no,20.6%,20.8,8.0,44.3%,–,–,–,–
"Cc1ccc(NC(=O)c2c(O)c3ccccc3n(-c3ccccc3)c2=O)cc1 [Compound 3r, 4-hydroxy-2-oxo-1-phenyl-N-(p-tolyl)-1,2-dihydroquinoline-3-carboxamide]",37.4%,17.1%,no,no,12.1,1.2,50.7%,–,inactive,37.5,–
"O=C(Nc1ccc(F)cc1)c1c(O)c2ccccc2n(-c2ccccc2)c1=O [Compound 3s, N-(4-fluorophenyl)-4-hydroxy-2-oxo-1-phenyl-1,2-dihydroquinoline-3-carboxamide]",–,28.9%,no,no,21.2,8.1,100%,10,inactive,–,–
"Cn1c(=O)c(C(=O)Nc2ccncc2)c(O)c2ccccc21 [Compound 3t, 4-hydroxy-1-methyl-2-oxo-N-(pyridin-4-yl)-1,2-dihydroquinoline-3-carboxamide]",inactive and no,100%,no,no,19.7,9.5,inactive and no,–,–,–,–
"CCn1c(=O)c(C(=O)NCCN)c(O)c2ccccc21 [Compound 7, N-(2-Aminoethyl)-1-ethyl-4-hydroxy-2-oxo-1,2-dihydroquinoline-3-carboxamide]",–,–,–,–,–,–,–,–,–,–,161
